Data as given in PMC6151700, “Novel FXa Inhibitor Identification through Integration of Ligand- and Structure-Based Approaches” (Molecules : A Journal of Synthetic Chemistry and Natural …, 2017).
Where two headings read alike, the source gives them in different places.

What was measured:
human FXa = molecular target: T1, human FXa (Homo sapiens, UniProt P00742); test: Inhibition of FXa in vitro (SensoLyte Rh110 Factor Xa Assay Kit, fluorometric); format: biochemical; conditions: for Emax at 0.01 µM: at 10 nM, read-out: maximal effect of FXa inhibition
T1 construct: purchased Anaspec, Fremont, CA, USA
Procedure: The selected compounds were measured in vitro for their factor Xa inhibition using chromogenic substrates. In a first trial the 30 compounds obtained from the developmental therapeutic program at NCI were dissolved in dimethyl sulfoxide (DMSO) at a concentration of 100 mM and then diluted in DMSO to 100 μM. The enzymatic assay was prepared according to manufacturer’s instructions (SensoLyte® Rh110 Factor Xa Assay Kit *Fluorometric*, Anaspec, Fremont, CA, USA). Inhibition control 1 mM was diluted 1:10 with the prepared buffer 1X obtaining the 0.1 mM inhibition control. The reagents containing compound dilutions, buffer and enzyme were mixed, centrifuged, and incubated for 30 min at 37 °C in 96-well microtiter plates. The enzyme reaction was initiated by adding appropriate substrate (FXa, S-2222). The 96-well plate for fluorescence was prepared with 40 μL of enzyme and 1 μL of each compound. To initiate the enzymatic reaction 50 μL of the factor Xa substrate was added to each well and the plate was read with a fluorescence microplate reader FLx800 (Biotek Inc., Winooski, VT, USA) programmed to read continuously for 30 min at 37 °C, at a wavelength of Ex/Em 490 nm/520 nm. […] The data obtained was analyzed with Prism v.7 (GraphPad Inc., La Jolla, CA, USA). In the second trial, the ten filtered and selected compounds) were prepared to span four different concentrations: 0.1–10 nM. The IC50 was calculated from the mean of triplicates from a dilution series of the compound with Prism v.7 (GraphPad Inc., La Jolla, CA, USA).

tumor cell line = conditions: assayed 53 times, ChEMBL database ref 46, 47; cited from earlier work
human plasma [1] = test: In vitro coagulation assay, activated partial thromboplastin time (aPTT); conditions: 0.1 to 10 nM
Procedure: (§1) PT and aPTT assays were performed on an ACLTop (Instrumentation Laboratory) coagulation instrument. Recombiplastin 2G and aPTT-SP liquid were used according to standard procedures. Increasing concentrations of inhibitor ranging from 0.1 to 10 nM or solvent were added to human plasma and incubated for 10 min at 37 °C. Clotting times were measured and compared with those from the appropriate control plasma.

human plasma [2] = test: In vitro coagulation assay, prothrombin time (PT); conditions: up to 10 nM
Procedure: as §1

[3] = read-out: FXa Activity Inhibition >50% at 1 μM
[4] = read-out: FXa Activity Inhibition >50% at 10 μM

T1 sequence (P00742 235-488 limits assumed): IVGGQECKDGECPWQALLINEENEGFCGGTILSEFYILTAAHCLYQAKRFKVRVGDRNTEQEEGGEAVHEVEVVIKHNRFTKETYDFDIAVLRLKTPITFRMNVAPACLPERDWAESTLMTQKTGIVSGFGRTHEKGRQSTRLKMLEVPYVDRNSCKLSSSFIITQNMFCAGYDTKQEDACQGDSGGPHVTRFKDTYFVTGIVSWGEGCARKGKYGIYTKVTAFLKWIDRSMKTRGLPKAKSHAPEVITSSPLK
T1 sequence (P00742 41-179 partner limits assumed): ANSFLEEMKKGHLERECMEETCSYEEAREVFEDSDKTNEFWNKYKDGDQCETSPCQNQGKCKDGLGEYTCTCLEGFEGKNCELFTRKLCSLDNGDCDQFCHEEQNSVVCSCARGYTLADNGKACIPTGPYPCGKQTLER

Structure (SMILES)	FXa Activity Inhibition >50% at 1 μM (human FXa)	FXa Activity Inhibition >50% at 10 μM (human FXa)	other results
O=C(NCc1ccc2ccc3cccnc3c2n1)c1ccc[n+](Cc2ccccc2)c1 [Compound 2]	(−) (FXa Activity Inhibition >50% at 1 μM)	(+) (FXa Activity Inhibition >50% at 10 μM)	–
Cc1ccc(NC(=O)CCc2nnc3s/c(=C\c4cccc([N+](=O)[O-])c4)c(=O)n23)cc1 [Compound 3]	(−) (FXa Activity Inhibition >50% at 1 μM)	(+) (FXa Activity Inhibition >50% at 10 μM)	–
CC1=C(C(=O)CC(=O)C(=O)Nc2ccccc2)Sc2ccccc2N1 [Compound 5, 4-(3-methyl-4H-1,4-benzothiazin-2-yl)-2,4-dioxo-N-phenylbutanamide]	–	–	tumor cell line growth inhibition (tumor cell line): inactive in all of them; Emax at 0.01 µM (human FXa): 58%; inhibition at 1 µM (human FXa; at 1 μM, read-out: FXa inhibition): > 50%; IC50 (human FXa; dose response curves, human FXa): 2.02 nM; inhibition at 1 µM (human FXa; [3]): > 50%; inhibition at 10 µM (human FXa; [4]): > 50%; aPTT (human plasma [1]): prolonged only aPTT; PT (human plasma [2]): without effect on PT
CS(=O)(=O)N1C[C@H](C(=O)Nc2ccc(Cl)cc2)[C@@H](C(=O)Nc2ccc(-n3ccccc3=O)cc2F)C1 [Compound 8]	–	–	inhibition at 1 µM (human FXa; 1 µM, Table S1, read-out: FXa Activity Inhibition >50% at 1µM): < 50%; inhibition at 10 µM (human FXa; 10 µM, Table S1, read-out: FXa Activity Inhibition >50% at 10µM): < 50%
CCOc1ccc(NC(=O)CC2SC(=Nc3ccc(C)cc3)NC2=O)cc1 (stereo not shown) [Compound 9]	(−) (FXa Activity Inhibition >50% at 1 μM)	(+) (FXa Activity Inhibition >50% at 10 μM)	–
O=C(C[n+]1ccn(CC(OCc2ccc(Cl)cc2Cl)c2ccc(Cl)cc2Cl)c1)c1ccc(F)cc1.[Cl-] (stereo not shown) [Compound 10]	(−) (FXa Activity Inhibition >50% at 1 μM)	(+) (FXa Activity Inhibition >50% at 10 μM)	–
c1ccc(Cc2[nH]nc(-c3n[nH]c(Cc4ccccc4)c3-c3ccccc3)c2-c2ccccc2)cc1 [Compound 12]	(−) (FXa Activity Inhibition >50% at 1 μM)	(+) (FXa Activity Inhibition >50% at 10 μM)	–
Cc1cc(Cl)ccc1NC(=O)CC1SC(=NC(=O)c2ccccc2Cl)NC1=O (stereo not shown) [Compound 22]	(−) (FXa Activity Inhibition >50% at 1 μM)	(+) (FXa Activity Inhibition >50% at 10 μM)	–
O=C(CC(=O)C1=CNc2ccccc2S1)C(=O)Nc1ccc(Cl)cc1 [Compound 23]	(−) (FXa Activity Inhibition >50% at 1 μM)	(+) (FXa Activity Inhibition >50% at 10 μM)	–
NC(=O)N/N=C(/Cc1nc2ccc(C(=O)c3ccccc3)cc2[nH]c1=O)C(=O)Nc1ccc(Br)cc1 [Compound 24]	(−) (FXa Activity Inhibition >50% at 1 μM)	(+) (FXa Activity Inhibition >50% at 10 μM)	–
O=C(NC[C@H]1CN(c2ccc(N3CCOCC3=O)cc2)C(=O)O1)c1ccc(Cl)s1 [Rivaroxaban, reference compound]	–	–	Emax at 0.01 µM (human FXa): 81%; inhibition at 1 µM (human FXa; [3]): > 50%; inhibition at 10 µM (human FXa; [4]): > 50%; aPTT (human plasma [1]): simultaneously prolonged aPTT and PT in a dose-dependent manner; PT (human plasma [2]): simultaneously prolonged aPTT and PT in a dose-dependent manner
